Results published in patent US20180325947A1, “USE OF MAPK INHIBITORS TO REDUCE LOSS OF HEMATOPOIETIC STEM CELLS DURING EX VIVO CULTURE AND/OR GENETIC MANIPULATION” (Children's Hospital Medical Center, priority 2015, published 2018).

Legend:
Assay type in all cases: cell-based
human CD34+ cells = assay: total CD34+ cell number / viability, trypan blue; conditions: with or without p38i
Method: (§1) Human CD34^+ cells were cultured and transduced as described in FIG. 13, panel A. Harvested cells were stained with trypan blue for viability, total CD34+ cell number (Panel A), fold change in percent human CD34^+ 38^− 90^+ 45RA^− 49f^+ (HSCs) (Panel B), percent annexin V^+ (apoptotic) CD34^+38^− 90^+ cells (Panel C), fold change in transduction efficiency (based on GFP marker percentage) over non-treated CD34^+38^− 90^+ cells (Panel D), fold change in MitoSOX MFI in CD34^+38^− 90^+ cells are shown (Panel E). Data represents mean±SEM. Statistics: Student's t test, […], *p<0.05, **p<0.01, ***p<0.001.

human CD34+38-90+ cells = assay: apoptosis, annexin V+ CD34+38-90+ cells; conditions: with or without p38i
Method: as §1

[1] = tested on: human HSCs (CD34+ 38- 90+ 45RA- 49f+); assay: percent phenotypic hHSC in ex vivo cultured CD34+ cells, flow cytometry; conditions: for percent hHSCs ex vivo in culture: ex vivo culture up to 72 hours
Method: Four different p38 inhibitors all increase the percent hHSCs ex vivo in culture studies up to 72 hours.
as §1

[2] = tested on: human CD34+ 38- 90+ HSC enriched population; assay: cell cycle status of HSCs (Ki67 / Hoechst), flow cytometry; conditions: for G0 quiescent phase of untransduced and transduced HSCs: early time period of ex vivo culture
Method: Human MPB derived CD34^+ cells were cultured and transduced with lentivirus (LV) or retrovirus (RV) for the indicated time points. Representative Immunofluorescence images of sorted human CD34^+ 38^− 90^+ population treated with or without p38i for 72 hours stained with anti-γH2AX and 53BP1 (Panel A) and quantification of γ-H2AX (Panel B) and 53BP1 (Panel C) MFI/cell. Panel D: Representative histogram plot from flow cytometric analysis of CD34^+ 38^− 90^+ HSC enriched cells stained for γ-H2AX with or without p38 inhibitor (p38i) and quantification of fold change in mean fluorescence intensity (MFI) of γ-H2AX in HSCs (Panel E) and percent GH2AX^+ cells (Panel F) at indicated time period. Percentage shown in histograms are cells positive for γH2AX and the numbers below is mean fluorescent intensity (MFI) (n=5 independent experiments). FACS plot representing HSCs in G0 (Quiescent), G1, and S-G2-M phase of cell cycle with or without p38i (Panel G) and quantification (Panel H) of HSC enriched population at different cell cycle phase at indicated time of ex vivo culture. Percentage of (±SEM) Ki67^− (G0) and Ki67^+ (G1-S-G2-M) HSCs is depicted on the y-axis. (n=4 independent experiments for 24 h LV and n=5 independent experiments for 42 h LV and 72 h RV)). Statistics: paired Student's t test, *p<0.05, **p<0.01, ***p<0.001.
Human MPB derived CD34^+ cells were cultured and transduced as described in FIG. 17. Panel A: Quantification of γ-H2AX^+ CD34^+ 38^− 90^+ cells at 24, 42, & 72 hours. n=5-8 independent experiments/condition). Panel B: Quantification of immunofluorescence analysis for γ-H2AX (left) and 53BP1 (right) MFI per sorted human CD34^+ 38^− 90^+ cell with or without p38i for 42 hours. Panel C: Quantitative plot representing CD34^+ 38^− 90^+ cells in G0-G1, and S-G2-M phase of cell cycle with or without p38i at 42 hours of ex vivo culture and lentivirus (LV) transduction. (n=6 independent experiments/condition). Statistics: paired Student's t test, *p<0.05, **p<0.01, ***p<0.001. Statistics: Student's t test, *p<0.05, **p<0.01, ***p<[…].
Ki67, a nuclear antigen associated with cell proliferation, was used to determine cell cycle status via flow cytometry; negative stains were considered to represent quiescent HSCs.

[3] = before the first HSC division (24 h)

Cc1ccc(-n2nc(C(C)(C)C)cc2NC(=O)Nc2ccc(OCCN3CCOCC3)c3ccccc23)cc1 [BIRB-796, 1-[5-tert-butyl-2-(4-methylphenyl)pyrazol-3-yl]-3-[4-(2-morpholin-4-ylethoxy)naphthalen-1-yl]urea]
total number of CD34+ cells or their viability (human CD34+ cells): no significant change
apoptosis in CD34+38-90+ population (human CD34+38-90+ cells): no difference
human HSCs in vitro ([1]; at 400, 600 and 800 nm concentrations): appeared to increase
percent hHSCs ex vivo in culture [1]: significant increase
percent hHSCs ex vivo in culture ([1]; listed as p38i): increased
loss of stem cells during in vitro or ex vivo culture ([1]; stem cells having undergone genetic manipulation that induces a DNA double strand break): successfully reduced
effect on HSC cell cycle ([2]; after 24 h, as HSC progressed through cell cycle): lost
proportion of HSC in the G0 quiescent phase [2, 3]: significantly increased
proportion of HSC in the S-G2-M phase [2, 3]: decreased
G0 quiescent phase of untransduced and transduced HSCs [2]: maintain
G0 quiescent phase of untransduced and transduced HSCs ([2]; listed as p38i): retains
